Experimental data as given in US4005213A, “2,5-Substituted-1,3,4-thiadiazoles as fungicides” (Schering Aktiengesellschaft, priority 1968, dated 1977).

Experiments:
Pythium ultimum [1] = assay: Limit concentration of soil-fungicidal effectiveness, Pythium ultimum infested soil, peas (Example 1); type: in vivo; settings: 20 to 23 days, 22°-25° C., germination at least 90% vs steamed soil; for minimal effective concentration: Globisporangium ultimum
Procedure: Limit concentrations of the soil-fungicidal effectiveness at homogeneous mixture of the products with the infested soil. Basic condition in the evaluation are a sound root formation without fungus necroses and germination of the seed of at least 90% compared with the result obtained in steamed soil. Per concentration there were seeded 25 grains of peas of the variety "Miracle of Kelvedon" (marrow pea) without a waiting period. the cultivation time in the tests was 20 to 23 days at a temperature of 22°-25° C. Four commercial products were included in the test series.
Pythium ultimum: Steamed compost soil was inoculated with mycelium of Pythium ultimum

Aspergillus niger = assay: Agar test, Aspergillus niger (Example 7); type: cell-based; settings: 10 ppm in malt extract agar, 5 days at 22° C.; control 100
Procedure: (§1) The fungicidal action of the agents according to the invention was tested in artificial nutrient media against plant-pathogenic fungi in Petri dishes (agar test). The procedure was to sterilize the medium consisting of 2% malt extract and 1.5% agar-agar powder. Before the solidification of the medium, the active substances were added to it, mixing thoroughly, so that the medium received 10 parts of active substance per million (ppm). After the solidification of the medium, the latter was inoculated with a platinum dropper which contained 100 spores each of the fungi to be tested, and after 5 days at 22° C., an evaluation was made by measuring the diameter of the colonies in mm.

Stemphylium ilicis = assay: Agar test, Stemphylium ilicis (Example 7); type: cell-based; settings: 10 ppm in malt extract agar, 5 days at 22° C.; control 100
Procedure: as §1

Pythium ultimum [2] = assay: Pea test in soil inoculated with Pythium ultimum (Example 2); type: in vivo; set-up: key to Root evaluation (1-4): 4 = white roots, no necroses … 1 = severe necroses, roots rotted; settings: for Root evaluation (1-4): 3 weeks
Procedure: Steamed compost soil was inoculated with mycelium of Pythium ultimum. […] The following table lists the number of germinated sound peas, the weight of the fresh plant, and a root evaluation after a cultivation period of 3 weeks at 22°-25° C.
4 = white roots, without fungus necroses
3 = white roots, slight fungus necroses
2 = brown roots, more intense fungus necroses
1 = severe fungus necroses, roots rotted

Rhizoctonia solani = assay: Pea test in soil inoculated with Rhizoctonia solani (Example 3); type: in vivo; settings: for Root evaluation (1-4): 3 weeks; for Number of sound peas after 3 wks.: 25 grains seeded
Text: Steamed compost soil was inoculated with mycelium of Rhizoctonia solani. After homogeneous mixture of the products with the infested soil, the products were present in the form of 20% powder preparations, the seeding of 25 grains of marrow peas of the variety Miracle of Kelvedon per concentration was effected without waiting period in clay dishes holding 1 liter of soil. The table lists the number of germinated sound peas, the weight of the fresh plant, and a root evaluation after a cultivation period of 3 weeks at 22°-25° C.

[3] = 10 mg active ingr. per liter of soil
[4] = 20 mg active ingr. per liter of soil
[5] = 30 mg active ingr. per liter of soil
[6] = 50 mg active ingr. per liter of soil
[7] = 100 mg active ingr. per liter of soil

Compound	minimal effective concentration (Pythium ultimum [1])	also measured
C[S+]([O-])c1nnc(CCl)s1 (stereo not shown) [Compound 2, 2-chloromethyl-5-methylsulfinyl-1,3,4-thiadiazole]	30 µg/mL	
CC(C)[S+]([O-])c1nnc(C(Cl)Cl)s1 (stereo not shown) [Compound 6, 2-dichloromethyl-5-isopropylsulfinyl-1,3,4-thiadiazole]	> 200 µg/mL	
CCCCC[S+]([O-])c1nnc(C(Cl)Cl)s1 (stereo not shown) [Compound 7, 2-dichloromethyl-5-amylsulfinyl 1,3,4-thiadiazole]	> 200 µg/mL	diameter of the colonies, Aspergillus niger (Aspergillus niger): 0 mm; diameter of the colonies, Stemphylium ilicis (Stemphylium ilicis): 0 mm
CCC[S+]([O-])c1nnc(C(Cl)(Cl)Cl)s1 (stereo not shown) [Compound 10, 2-trichloromethyl-5-propylsulfinyl-1,3,4-thiadiazole]	100 µg/mL	diameter of the colonies, Aspergillus niger (Aspergillus niger): 0 mm; diameter of the colonies, Stemphylium ilicis (Stemphylium ilicis): 0 mm
CC(C)[S+]([O-])c1nnc(C(Cl)(Cl)Cl)s1 (stereo not shown) [Compound 11, 2-trichloromethyl-5-isopropylsulfinyl-1,3,4-thiadiazole]	> 200 µg/mL	
CCCC[S+]([O-])c1nnc(C(Cl)(Cl)Cl)s1 (stereo not shown) [Compound 12, 2-trichloromethyl-5-butylsulfinyl-1,3,4-thiadiazole]	200 µg/mL	diameter of the colonies, Aspergillus niger (Aspergillus niger): 0 mm; diameter of the colonies, Stemphylium ilicis (Stemphylium ilicis): 0 mm
CCCCCCC[S+]([O-])c1nnc(C(Cl)(Cl)Cl)s1 (stereo not shown) [Compound 13, 2-trichloromethyl-5-heptylsulfinyl-1,3,4-thiadiazole]	> 200 µg/mL	diameter of the colonies, Aspergillus niger (Aspergillus niger): 0 mm; diameter of the colonies, Stemphylium ilicis (Stemphylium ilicis): 0 mm
CCCCCCCC[S+]([O-])c1nnc(C(Cl)(Cl)Cl)s1 (stereo not shown) [Compound 14, 2-trichloromethyl-5-octylsulfinyl-1,3,4-thiadiazole]	> 200 µg/mL	
CS(=O)(=O)c1nnc(CCl)s1 [Compound 15, 2-chloromethyl-5-methylsulfonyl-1,3,4-thiadiazole]	10 µg/mL	Root evaluation (1-4) (Pythium ultimum [2]; [3]): 4; Root evaluation (1-4) (Pythium ultimum [2]; [4]): 4; Root evaluation (1-4) (Pythium ultimum [2]; [5]): 4
CC(C)S(=O)(=O)c1nnc(CCl)s1 [Compound 16, 2-chloromethyl-5-isopropylsulfonyl-1,3,4-thiadiazole]	150 µg/mL	
CC(C)S(=O)(=O)c1nnc(C(Cl)Cl)s1 [Compound 20, 2-dochloromethyl-5-isopropylsulfonyl-1,3,4-thiadiazole]	200 µg/mL	
CCS(=O)(=O)c1nnc(C(Cl)(Cl)Cl)s1 [Compound 22, 2-trichloromethyl-5-ethylsulfonyl-1,3,4-thiadiazole]	50 µg/mL	diameter of the colonies, Aspergillus niger (Aspergillus niger): 0 mm; diameter of the colonies, Stemphylium ilicis (Stemphylium ilicis): 0 mm
CC(C)S(=O)(=O)c1nnc(C(Cl)(Cl)Cl)s1 [Compound 24, 2-trichloromethyl-5-isopropylsulfonyl-1,3,4-thiadiazole]	150 µg/mL	diameter of the colonies, Aspergillus niger (Aspergillus niger): 0 mm; diameter of the colonies, Stemphylium ilicis (Stemphylium ilicis): 0 mm
CCCCS(=O)(=O)c1nnc(C(Cl)(Cl)Cl)s1 [Compound 25, 2-trichloromethyl-5-butylsulfonyl-1,3,4-thiadiazole]	> 200 µg/mL	diameter of the colonies, Aspergillus niger (Aspergillus niger): 0 mm; diameter of the colonies, Stemphylium ilicis (Stemphylium ilicis): 0 mm
CCCCCS(=O)(=O)c1nnc(C(Cl)(Cl)Cl)s1 [Compound 26, 2-trichloromethyl-5-amylsulfonyl-1,3,4-thiadiazole]	> 200 µg/mL	diameter of the colonies, Aspergillus niger (Aspergillus niger): 0 mm; diameter of the colonies, Stemphylium ilicis (Stemphylium ilicis): 0 mm
CCCCCCS(=O)(=O)c1nnc(C(Cl)(Cl)Cl)s1 [Compound 27, 2-trichloromethyl-5-hexylsulfonyl-1,3,4-thiadiazole]	> 200 µg/mL	diameter of the colonies, Aspergillus niger (Aspergillus niger): 0 mm; diameter of the colonies, Stemphylium ilicis (Stemphylium ilicis): 0 mm
CCCCCCCS(=O)(=O)c1nnc(C(Cl)(Cl)Cl)s1 [Compound 28, 2-trichloromethyl-5-heptysulfonyl-1,3,4-thiadiazole]	> 200 µg/mL	diameter of the colonies, Aspergillus niger (Aspergillus niger): 0 mm; diameter of the colonies, Stemphylium ilicis (Stemphylium ilicis): 0 mm
CCCCCCCCS(=O)(=O)c1nnc(C(Cl)(Cl)Cl)s1 [Compound 29, 2-trichloromethyl-5-octylsulfonyl-1,3,4-thiadiazole]	> 200 µg/mL	diameter of the colonies, Aspergillus niger (Aspergillus niger): 19 mm; diameter of the colonies, Stemphylium ilicis (Stemphylium ilicis): 0 mm
CS(=O)(=O)c1nnc(CBr)s1 [Compound 30, 2-bromomethyl-5-methylsulfonyl-1,3,4-thiadiazole]	20 µg/mL	Root evaluation (1-4) (Pythium ultimum [2]; [3]): 1; Number of sound peas after 3 wks. (Pythium ultimum [2]; 10 mg active ingr. per liter of soil, 25 grains seeded): 21; Root evaluation (1-4) (Pythium ultimum [2]; [4]): 4; Root evaluation (1-4) (Pythium ultimum [2]; [5]): 4

Compound	minimal effective concentration (Pythium ultimum [1])	also measured
CCS(=O)(=O)c1nnc(CBr)s1 [Compound 31, 2-bromomethyl-5-ethylsulfonyl-1,3,4-thiadiazole]	50 µg/mL	
C[S+]([O-])c1nnc(CF)s1 (stereo not shown) [Compound 33, 2-fluoromethyl-5-methylsulfinyl-1,3,4-thiadiazole]	50 µg/mL	
CS(=O)(=O)c1nnc(CF)s1 [Compound 34, 2-fluoromethyl-5-methylsulfonyl-1,3,4-thiadiazole]	50 µg/mL	
CC(C)C[S+]([O-])c1nnc(C(F)(F)F)s1 (stereo not shown) [Compound 37, 2-trifluoromethyl-5-isobutylsulfinyl-1,3,4-thiadiazole]	30 µg/mL	
CCCCC[S+]([O-])c1nnc(C(F)(F)F)s1 (stereo not shown) [Compound 38, 2-trifluoromethyl-5-pentylsulfinyl-1,3,4-thiadiazole]	100 µg/mL	
CCCCCC[S+]([O-])c1nnc(C(F)(F)F)s1 (stereo not shown) [Compound 39, 2-trifluoromethyl-5-hexylsulfinyl-1,3,4-thiadiazole]	100 µg/mL	
CC(C)S(=O)(=O)c1nnc(C(F)(F)F)s1 [Compound 41, 2-trifluoromethyl-5-isopropylsulfonyl-1,3,4-thiadiazole]	10 µg/mL	
CC(C)CS(=O)(=O)c1nnc(C(F)(F)F)s1 [Compound 42, 2-trifluoromethyl-5-isobutylsulfonyl-1,3,4-thiadiazole]	20 µg/mL	
CCCCCCS(=O)(=O)c1nnc(C(F)(F)F)s1 [Compound 43, 2-trifluoromethyl-5-hexylsulfonyl-1,3,4-thiadiazole]	> 100 µg/mL	
CCCCCCCS(=O)(=O)c1nnc(C(F)(F)F)s1 [Compound 44, 2-trifluoromethyl-5-heptylsulfonyl-1,3,4-thiadiazole]	> 100 µg/mL	
CS(=O)(=O)c1nnc(C(F)(F)C(F)(F)F)s1 [Compound 45, 2-pentafluoroethyl-5-methylsulfonyl-1,3,4-thiadiazole]	100 µg/mL	
CC(Cl)(Cl)c1nnc(S(C)(=O)=O)s1 [Compound 47, 2-(1,1-dichloroethyl)-5-methylsulfonyl-1,3,4-thiadiazole]	80 µg/mL	
CCC(Cl)c1nnc([S+](C)[O-])s1 (stereo not shown) [Compound 48, 2-(1-chloropropyl)-5-methylsulfinyl-1,3,4-thiadiazole]	> 100 µg/mL	
CCC(Cl)c1nnc(S(C)(=O)=O)s1 (stereo not shown) [Compound 49, 2-(1-chloropropyl)-5-methylsulfonyl-1,3,4-thiadiazole]	100 µg/mL	
CC(Br)c1nnc(S(C)(=O)=O)s1 (stereo not shown) [Compound 50, 2-(1-bromethyl)-5-methylsulfonyl-1,3,4-thiadiazole]	40 µg/mL	
CC(C)C(Br)c1nnc(S(C)(=O)=O)s1 (stereo not shown) [Compound 51, 2-(1-bromisobutyl)-5-methylsulfonyl-1,3,4-thiadiazole]	> 100 µg/mL	
CCCCC(Br)c1nnc(S(C)(=O)=O)s1 (stereo not shown) [Compound 52, 2-(1-bromopentyl)-5-methylsulfonyl-1,3,4-thiadiazole]		Limit concentration of fungicidal effectiveness, Pythium ultimum (Pythium ultimum [1]): no effect
CC(C)CC(Br)c1nnc(S(C)(=O)=O)s1 (stereo not shown) [Compound 53, 2-(1-bromisopentyl)-5-methylsulfonyl-1,3,4-thiadiazole]		Limit concentration of fungicidal effectiveness, Pythium ultimum (Pythium ultimum [1]): no effect
O=[N+]([O-])c1c(Cl)c(Cl)c(Cl)c(Cl)c1Cl [Pentachloronitrobenzene, reference compound]		Root evaluation (1-4) (Rhizoctonia solani; [6]): 1; Number of sound peas after 3 wks. (Rhizoctonia solani; [6]): 4; Root evaluation (1-4) (Rhizoctonia solani; [7]): 4; Number of sound peas after 3 wks. (Rhizoctonia solani; [7]): 25
